Source: article PMC8073907, “Peptide targeting of lysophosphatidylinositol-sensing GPR55 for osteoclastogenesis tuning” (Cell Communication and Signaling : CCS, 2021)

B1: RANKL: Receptor-activator of nuclear factor kappa-β ligand, Peprotech (protein, UniProt O14788 140-317, looked up)
Tumor necrosis factor ligand …: IRAEKAMVDGSWLDLAKRSKLEAQPFAHLTINATDIPSGSHKVSLSSWYHDRGWAKISNMTFSNGKLIVNQDGFYYLYANICFRHHETSGDLATEYLQLMVYVTKTSIKIPSSHTLMKGGSTKYWSGNSEFHFYSINVGGFFKLRSGEEISIEVSNPSLLDPDQDATYFGAFKVRDID

Columns and labels:
[1] = test system: endogenous GPR55 (HeLa); test: LPI-induced ERK/p38 phosphorylation in shCTRL-HeLa clones (Western blot); type: cell-based, human; settings: for inhibition of LPI stimulation of both ERK2 and p38 phosphorylation at 5 min / inhibition of LPI-induced stimulation of ERK1/2: 30 µM ML-191, 10 µM CBD or 10 µM O1918
Experimental: For stable interference of GPR55, HeLa cells were plated at 1.5 × 10^5 cells/well in six-well plates in growth medium without antibiotics, and 24 h later, the cells were transfected with 1.7 µg/well OmicsLink short hairpin (sh)RNA expression clone CSHCTR001-CU6 (shCTRL) or clone HSH022476-3-CU6 (shGPR55) from GeneCopoeia (Rockville, MD, USA), using Lipofectamine 2000, according the manufacturer instructions. Forty-eight hours after transfection, HeLa clones stably expressing shRNAs were selected in growth medium containing 0.3 µg/mL puromycin. The efficiency of interference was monitored by real-time PCR using the primers listed in the Additional file 1: Table S1. HPRT1 was followed as a housekeeping gene.
(§1) Twenty-four hours after transfection (HEK293T, HeLa cells or clones) or 72 h after interference (RAW264.7 cells), the cells were washed twice with HBSS^++, serum deprived (HEK293T cells for 4 h in DMEM; HeLa cells and clones for 2 h in MEM plus 2 mM glutamine and 25 mM HEPES; RAW264.7 cells for 2 h in DMEM), washed once again with HBSS^++, incubated in stimulation buffer (HBSS^++ with 10 mM HEPES, 0.4% faf-BSA for HEK293T cells; HBSS^++ with 25 mM HEPES and 0.01% faf-BSA for HeLa cells, clones, and RAW264.7 cells) in the absence or presence of stimuli, at 37 °C for the indicated times. Incubations were terminated by washing the cells twice with cold HBSS^++, and the analyses were performed as reported below.
Cell lysates were obtained by scraping the cells into phospho-lysis buffer: 50 mM Tris–HCl, pH 7.5, 100 mM NaCl, 5 mM EDTA, 1% Triton X-100, 50 mM NaF, 40 mM β-glycerophosphate, 200 µM sodium orthovanadate, plus protease and phosphatase inhibitors (Roche). Following gentle homogenisation by 20 passages through a 26-gauge needle, the lysates were centrifuged at 10,000×g for 5 min at 4 °C, and the supernatants were collected.
Protein lysates were subjected to SDS-PAGE, and after electrophoresis, the proteins were transferred to a nitrocellulose membrane (PerkinElmer Life Science, Boston, MA, USA). For immunoblotting, the membranes were blocked with 5% non-fat milk in TBS (10 mM Tris–HCl, pH 7.4, 10 mM NaCl) plus 0.1% Tween-20 (T-TBS) for 30 min at room temperature, and incubated with primary antibodies in T-TBS plus 3% BSA for 2 h at room temperature, or overnight at 4 °C. The membranes were washed twice in T-TBS for 7 min, and then incubated with secondary antibodies conjugated to horseradish peroxidase (1:5,000) (Calbiochem, San Diego, CA, USA) in T-TBS with 5% non-fat milk for 30 min at room temperature. The membranes were then washed twice with T-TBS and once with TBS for 5 min, and the signals were detected by ECL (Amersham Pharmacia, Piscataway, NJ, USA). The rabbit anti-phospho AKT (Ser473), anti-phospho p38 (Thr180/Tyr182), anti-phospho p42/44 (Thr202/Tyr204), anti-p38 (all at dilution 1:1000) were from Cell Signaling Technology (Danvers, MA, USA). The rabbit anti-AKT (B-1), and anti-p42/44 (ERK1; K-23) were from Santa Cruz Biotechnology.

[2] = test system: Gpr55 mRNA in RAW264.7 cells; test: Modulation of Gpr55 mRNA levels by receptor ligands in RANKL-treated RAW264.7 cells; type: cell-based, murine; settings: 72 h; for Gpr55 mRNA levels (fold non-differentiated): alone or + 1 μM soybean LPI, 0.5 μM ML-191, 0.5 μM CBD or 30 μM O1918, means ± SEM of at least three independent experiments
Experimental: (§2) Total RNA was extracted using RNeasy isolation kits, cDNAs were obtained using QuantiTect Reverse Transcription kits, and real-time PCRs were performed with QuantiTect SYBR Green PCR kits (all from Qiagen, Hilden, Germany), according to the manufacturer instructions. The primers used for the real-time PCRs and their annealing temperatures are listed in the Additional file 1: Table S1. Human hypoxanthine phosphoribosyltransferase 1 (HPRT1) or murine β2-microglobulin were followed as housekeeping genes. The real-time PCR programme consisted of an initial 15 min at 95 °C, and then 45 cycles as follows: 94 °C for 15 s, annealing temperature of each primer for 30 s, and 72 °C for 30 s. The real-time PCR machine used was a LightCycler 480 Instrument II (Roche, Indianapolis, IN, USA).
(§3) For the osteoclastogenesis in-vitro assay, RAW264.7 cells were plated in differentiation medium (α-MEM with 10% heat-inactivated FBS, 2 mM L-glutamine, 100 U/mL penicillin, and 100 ug/mL streptomycin) at a density of 5 × 10^3 cells/well in 24-well plates on coverslips for morphological analysis, or at 2 × 10^4 cells/well in six-well plates for RNA extraction. Twenty-four hours later and every 48 h, the medium was replaced and the cells were treated with 15–30 ng/mL RANKL with DMSO and/or PBS as carriers, or with GPR55 antagonists/ agonists (0.5 µM ML-191, 30 µM O1918, 0.5 µM CBD, 0.5 μM CID16020046 1 µM soybean LPI, 1 μM ML-184), or with the peptides (150 nM peptide-P1; or the irrelevant peptide, Irr_P). Twenty-four hours after the last addition, the cells were fixed with 4% paraformaldehyde for morphological analyses or harvested for RNA extraction (see above).

[3] = test system: RAW264.7 cells; test: RANKL-induced transcription of osteoclastogenesis markers in RAW264.7 cells (real-time PCR); type: cell-based, murine; settings: 72 h; for effect on RANKL-induced Mmp-9 mRNA: 0.5 µM CBD
Experimental: as §2
For transient interference of Gpr55, RAW264.7 cells were plated at 6 × 10^5 cells/well in six-well plates in growth medium without antibiotics. Twenty-four hours later, the cells were transfected with 250 pmol/well non-targeting small-interfering (si)RNAs (si-NT; siGENOME siRNA Pool #2; D-001206-14; Dharmacon, Chicago, IL, USA) or Gpr55-specific siRNAs (si-GPR55; siGENOME mouse GPR55 SMART pool; M-043590-01; Dharmacon) using Lipofectamine LTX and Plus Reagent, according to the manufacturer instructions. Twenty-four hours later, the cells were plated for the different assays or for RNA extraction. The efficiency of interference was monitored by real-time PCR after 72 h of interference, using the primers listed in the Additional file 1: Table S1. β2-microglobulin was followed as a housekeeping gene.
as §3

[4] = test system: HA-GPR55 in HEK293T cells; test: LPI-induced ERK1/2 activation in GPR55-transfected HEK293T cells; type: cell-based, human; settings: soybean or synthetic LPI, 100 nM to 10 µM, 3–30 min; different transfection methods
From the text: The construct of haemagglutinin (HA)-tagged human GPR55 in pcDNA3 (HA-GPR55) was a gift from Prof. K. Mackie, Indiana University, Bloomington, IN, USA [39], while the construct ss-3 × HA-GPR55 in pcDNA3.1 (ssGPR55) with a triple HA tag at the N-terminus and an optimised signal sequence (ss, derived from amino acids 1–33 of the human growth hormone: […]) for efficient surface expression was from Prof. A. Irving, Dundee University, UK [40]. For both constructs, mutations were introduced by site-directed mutagenesis using QuickChange kits (Stratagene, La Jolla, CA, USA), according to the manufacturer instructions. The primers for the K80A mutation were 5′-[…]-3′ and 5′-[…]-3′ (Tm, 70.6 °C), and for Q87A were 5′-[…]-3′ and 5′-[…]-3′ (Tm, 73.1 °C).
For GPR55 overexpression, HEK293T cells were plated in their growth medium without antibiotics at 2.6 × 10^5 cells/well in 12-well plates, and 24 h later, the cells were transfected with 1 µg cDNA/well using Lipofectamine 2000, according to the manufacturer instructions. The pcDNA3 empty vector or that coding for human HA-GPR55 wild-type or its mutants HA-GPR55-K80A and HA-GPR55-Q87A were used.
as §1, with “Incubations were terminated by washing the cells twice with cold HBSS^++, and the analyses were performed as reported below.” left out
Protein lysates were subjected to SDS-PAGE, and after electrophoresis, the proteins were transferred to a nitrocellulose membrane (PerkinElmer Life Science, Boston, MA, USA). […] The membranes were then washed twice with T-TBS and once with TBS for 5 min, and the signals were detected by ECL (Amersham Pharmacia, Piscataway, NJ, USA). […]

[5] = test system: osteoclasts derived from RAW264.7 cells; test: Osteoclast functional assay (bone resorption on bovine cortical bone slices); type: cell-based, murine; settings: 15 ng/mL RANKL, 7 days; at least three independent experiments
Experimental: RAW264.7 cells were plated in differentiation medium at a density of 1250 cells/100 µL on 0.2-mm-thick bovine cortical bone slices (BoneSlices.com, Jelling, Denmark) in 96-well plates. Six hours later, 100 µL differentiation medium with RANKL (15 ng/mL, final concentration) was added, in the presence of a carrier or in combination with the GPR55 modulators. The media with the different compounds were replaced every 48 h, for a total of 7 days. At the end of this period, the cells were detached with a 10% bleach solution, and the resorption excavations were visualised by using Toluidine Blue staining (Sigma-Aldrich). Images of the resorption areas were obtained under the microscope (SW380T; Swift Optical Instruments, Inc., TX, USA) using the 10 × objective, and acquired with a digital camera (Swiftcam SC1003; Swift Optical Instruments, Inc.). The total eroded surface underwent blinded quantification using ImageJ (NIH), and was subdivided into pit and trench surfaces. Pits were characterised as round excavations with well-defined edges where the ratio between length and width was < 2.0. Trenches were defined as elongated excavations with well-defined edges whose length was at least twice the wide, and with clear signs of continued resorption. The prevalence of trenches was calculated as a proportion (%) of the trench surface relative to the total eroded surface.

[6] = 10 µM soybean LPI, 10 min, 10 µM CBD or 30 µM ML-191, relative to CBD or ML-191 basal level
[7] = 15–30 ng/mL RANKL, 0.5 µM ML-191, 0.5 µM CBD, 30 µM O1918, four independent experiments
[8] = 30 ng/mL RANKL, mean ± range of two independent experiments

| Molecule | inhibition of LPI stimulation of both ERK2 and p38 phosphorylation at 5 min ([1]; 10 µM soybean LPI) | inhibition of LPI-induced stimulation of ERK1/2 ([1]; 10 µM soybean LPI) | Gpr55 mRNA levels (fold non-differentiated) ([2]; 30 ng/mL RANKL) | effect on RANKL-induced Mmp-9 mRNA ([3]; 15–30 ng/mL RANKL, 30 µM O1918) | effect on RANKL-induced Ctr mRNA [3, 7] | reduction of RANKL-induced Nfatc1 mRNA [3, 7] | reduction of RANKL-induced Trap mRNA [3, 7] | other results |
| --- | --- | --- | --- | --- | --- | --- | --- | --- |
| C=C(C)[C@@H]1CCC(C)=C[C@H]1c1c(O)cc(CCCCC)cc1O [CBD, Cannabidiol] | inhibited LPI stimulation of both ERK2 and p38 phosphorylation at 5 min | strongly inhibited | 27.7 ± 0.5 fold non-differentiated | not affected | not affected | 40% | 50% | ERK2 phosphorylation upon LPI stimulation in presence of antagonist [1, 6]: 3.3 -fold the antagonist basal lev; p38 phosphorylation upon LPI stimulation in presence of antagonist [1, 6]: 1.5 -fold the antagonist basal lev; further enhancement of RANKL-stimulated Gpr55 mRNA levels ([2]; 0.5 μM ML-191, 0.5 μM CBD, 1 μM soybean LPI, versus RANKL alone): 0.7 -fold; reduction of RANKL-induced Cathepsin-k mRNA [3, 7]: 44% |
| Cc1cccc(N2CCN(C(=O)c3cc(S(=O)(=O)N(C)C)ccc3N3CCCC3)CC2)c1C [ML-184] |  |  |  |  |  |  |  | RANKL-induced transcription of Ctr, si-NT versus si-GPR55 cells ([3]; RANKL 15 ng/mL, 1 µM soybean LPI or 1 µM ML-184): similarly increased RANKL-induced transcription of Ctr only in precursor cells treated with non-targeting siRNAs, and not in those silenced for GPR55 |
| C=C(C)[C@@H]1CCC(C)=C[C@H]1c1c(OC)cc(C)cc1OC [O1918] | inhibited LPI stimulation of both ERK2 and p38 phosphorylation at 5 min | abolished | 15.8 ± 3.1 fold non-differentiated | not affected | not affected | 40% | 40% | basal ERK2 activation level (without LPI) ([1]; 30 µM ML-191 or 10 µM O1918): significantly increased basal activation levels; effect on RANKL-stimulated Gpr55 mRNA levels ([2]; 30 μM O1918): did not show any effects; effect on RANKL-induced Cathepsin-k mRNA ([3]; 15–30 ng/mL RANKL, 30 µM O1918): not affected |
| L-α-lysophosphatidylinositol sodium salt from soybean [soybean LPI] |  |  | 24.5 ± 2.1 fold non-differentiated |  |  |  |  | ERK1/2 activation in GPR55-transfected compared to empty-vector-transfected cells [4]: inconsistent ERK1/2 activation |
| B1 |  |  | 16.1 ± 1.6 fold non-differentiated |  |  |  |  | Gpr55 mRNA increase ([2]; 30 ng/mL RANKL, three independent experiments): 14 -fold; trench surface relative to total eroded surface [5]: 42 ± 8 % of total eroded surface; Cathepsin-k mRNA increase versus undifferentiated cells [3, 8]: 468.5 (±24.3) -fold; Mmp-9 mRNA increase versus undifferentiated cells [3, 8]: 673.3 (±4.7) -fold; Nfatc1 mRNA increase versus undifferentiated cells [3, 8]: 11.9 (±2.2) -fold; Trap mRNA increase versus undifferentiated cells [3, 8]: 188.8 (±57.6) -fold |
